US10660338B2, “Sporocidal disinfectant or sanitising composition” (priority 2014, dated 2020)

Assays:
[1] = Dye duration (lifetime before bleaching); type: physicochemical
Description: and wherein the colour indicator comprises a first non-mordant dye having a first colour and being bleachable after a first dye lifetime of 0.5 to 10 minutes in a test solution at 20° C. to 40° C. and pH8.0 to 8.5 containing 0.05 wt % to 0.15 wt % of the dye and 45 wt % to 55 wt % of sodium percarbonate;
a second non-mordant dye having a second colour different from the first colour and bleachable after a second dye lifetime of not less than 24 hours in the test solution; and
an optional third non-mordant dye having a third colour different from the first and second colours and bleachable after a third dye lifetime of not less than 36 hours in the test solution.

spores [2] = experiment: Sporocidal action of peracetic acid (general statements); type: cell-based
spores [3] = details: background statement; cited from earlier work

Compound: O=S(=O)(O)c1cc(S(=O)(=O)O)c2c(/N=N\c3ccc(S(=O)(=O)O)c4ccccc34)c(O)ccc2c1 [Acid Red 18]
- DURATION [1]: 30 min

Compound: Cc1ccc(Nc2ccc(O)c3c2C(=O)c2ccccc2C3=O)c(S(=O)(=O)[O-])c1.[Na+] [Acid Violet 43]
- DURATION [1]: 5 min

Compound: CC(=O)OO [Peracetic acid]
- Concentration sufficient to provide sporicidal action (spores [2]): approximately 1000 ppm
- Concentration at which sporocidal (spores [3]): 4000 ppm
